11 compounds from PubChem BioAssay (NCI) can be followed below.

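Values below derive from 48-hour exposures of cells grown in 96-well plates, with endpoints linearly interpolated between the two concentrations bracketing the appropriate inhibition level. GI50 marks 50% less growth. TGI denotes the concentration required for complete inhibition of growth.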

Among the test systems are RXF 393 renal; HOP-62 NSCLC; HCC-2998 colon; CCRF-CEM leukemia; DU-145 prostate; SW-620 colon; SF-539 CNS; KM12 colon; MALME-3M melanoma; SN12C renal.
Assay in all cases: inhibition of tumour cell growth, NCI panel, 48 h

As for `O=C1CCC/C=C\C[C@H]2C=C(Cl)C(=O)/C2=C/C[C@H](CCCCC(F)(F)F)OC(=O)CCC/C=C\C[C@H]2C=C(Cl)C(=O)/C2=C/C[C@H](CCCCC(F)(F)F)O1`, the GI50 is 0.134 µM in the test on RXF 393 renal; 0.274 µM in the test on HOP-62 NSCLC; 0.215 µM with HCC-2998 colon; 0.178 µM in the test with CCRF-CEM leukemia; 0.264 µM in the test with DU-145 prostate; 0.237 µM with SW-620 colon. Further, the results for the GI50 with SF-539 CNS, in the test on KM12 colon and in the test on MALME-3M melanoma were 0.257 µM, 0.291 µM and 0.21 µM, respectively. In addition, the TGI in the test on RXF 393 renal stood at 0.279 µM; with HOP-62 NSCLC it was 1.46 µM; in the test on HCC-2998 colon, 0.64 µM; with CCRF-CEM leukemia, 0.884 µM; with DU-145 prostate, 1.42 µM; in the test on SW-620 colon it was 0.659 µM. Further, the values for the TGI with SF-539 CNS, with KM12 colon and in the test with MALME-3M melanoma were 1.52 µM, 1.38 µM and 0.694 µM, respectively.
For the compound `CCOP1(=O)OCC2OC(n3cnc4c(N)ncnc43)C(O)C2O1` (stereo not given), the TGI in the test with RXF 393 renal, in the test with HOP-62 NSCLC, in the test on SN12C renal, in the test with DU-145 prostate, in the test on SW-620 colon and with SF-539 CNS was > 100 µM each time. Moreover, the TGI in the test on KM12 colon and with MALME-3M melanoma was > 100 µM throughout.
Turning to `Nc1nc2nc3c(nc2c(=O)[nH]1)CN(c1ccc(C(=O)O)cc1)C3=O`, the TGI is > 100 µM in the test on RXF 393 renal; 83.7 µM in the test on HOP-62 NSCLC; > 100 µM in the test with SN12C renal; > 100 µM in the test with HCC-2998 colon; > 100 µM in the test with DU-145 prostate; > 100 µM with SW-620 colon. Moreover, the TGI with SF-539 CNS, in the test on KM12 colon and with MALME-3M melanoma was > 100 µM each time.
Take `COc1ccc(NC(=O)c2ccc(NC3=C(Cl)C(=O)N(Cc4ccccc4)C3=O)cc2)cc1`: the GI50 in the test with RXF 393 renal was 3.21 µM; in the test on HOP-62 NSCLC it was 17.1 µM; with SN12C renal it was 14.4 µM; in the test on HCC-2998 colon, 15.6 µM; with DU-145 prostate, 5 µM; in the test with SW-620 colon it was 4.83 µM. Besides, the GI50 with SF-539 CNS is 3.29 µM; in the test with KM12 colon, 16.8 µM. In addition, the TGI in the test on RXF 393 renal was 14.6 µM; with HOP-62 NSCLC, 32.6 µM; in the test with SN12C renal, 30.2 µM; in the test with HCC-2998 colon it was 31.1 µM; with DU-145 prostate, 24.3 µM; in the test on SW-620 colon, > 100 µM. Further, the TGI amounted to 11.8 µM with SF-539 CNS and 38.2 µM in the test with KM12 colon.
Consider `COC(=O)C1Cc2c([nH]c3ccccc23)[C@H](CC(C)C)N1` (stereo not given in full), for which the TGI with RXF 393 renal, with HOP-62 NSCLC, in the test with SN12C renal, with HCC-2998 colon, in the test with CCRF-CEM leukemia and with SW-620 colon was > 100 µM in each case. Moreover, the TGI in the test on SF-539 CNS, in the test with KM12 colon and in the test with MALME-3M melanoma was > 100 µM throughout.
`Cn1cc(-c2ccc3cc(-c4ccc(CC(=O)Nc5cc(C(C)(C)C)nn5C)cc4)cnc3c2)cn1`: the GI50 with HOP-62 NSCLC is 0.409 µM; in the test with SN12C renal it was 0.23 µM; with HCC-2998 colon, 0.443 µM; in the test on CCRF-CEM leukemia it was 0.375 µM; in the test on DU-145 prostate it was 0.17 µM; in the test with SW-620 colon it was 0.324 µM. In addition, the GI50 with SF-539 CNS is 0.112 µM; with KM12 colon it was 0.0233 µM; in the test with MALME-3M melanoma, 0.146 µM. In addition, the TGI in the test with HOP-62 NSCLC, in the test on SN12C renal, in the test on HCC-2998 colon, with CCRF-CEM leukemia, in the test with DU-145 prostate and in the test on SW-620 colon was > 100 µM in each case. The TGI is 12.4 µM in the test with SF-539 CNS, > 100 µM in the test with KM12 colon and > 100 µM in the test with MALME-3M melanoma.
`O=C1CCCC1C(=O)Nc1ccc2ccccc2c1` (stereo not given): the TGI with RXF 393 renal, with HOP-62 NSCLC, with SN12C renal, with HCC-2998 colon, in the test with CCRF-CEM leukemia and in the test on DU-145 prostate was > 100 µM each time. Moreover, the TGI in the test with SW-620 colon, in the test on KM12 colon and in the test with MALME-3M melanoma was > 100 µM each time.
As to `CCOC(=O)c1cnc2ccc(Cl)cc2c1NCCCN(C)C`, the GI50 in the test with HOP-62 NSCLC is 23 µM; in the test with SN12C renal, 20.5 µM; in the test with HCC-2998 colon, 38.4 µM; in the test on CCRF-CEM leukemia, 22.2 µM; in the test on DU-145 prostate, 25.5 µM; in the test with SW-620 colon it was 13.4 µM. Also, the GI50 in the test on SF-539 CNS was 17.4 µM; in the test on KM12 colon, 25.8 µM; in the test with MALME-3M melanoma it was 19.1 µM. In addition, the TGI in the test on HOP-62 NSCLC is 94.8 µM; in the test on SN12C renal it was > 100 µM; in the test on HCC-2998 colon, > 100 µM; in the test on CCRF-CEM leukemia, > 100 µM; in the test on DU-145 prostate, 76.3 µM; with SW-620 colon, 74.6 µM. Besides, the TGI in the test on SF-539 CNS was 41.5 µM; in the test with KM12 colon it was > 100 µM; in the test with MALME-3M melanoma it was 38.7 µM.
With `COC(=O)C1=C(O)C(O)=C(C(=O)OC)CC1`, the TGI with RXF 393 renal is 35.1 µM; in the test on HOP-62 NSCLC, > 100 µM; in the test with SN12C renal it was > 100 µM; with HCC-2998 colon it was > 100 µM; in the test on CCRF-CEM leukemia it was > 100 µM; with SW-620 colon, > 100 µM. Further, the TGI in the test with SF-539 CNS, in the test on KM12 colon and in the test with MALME-3M melanoma was > 100 µM each time.
`COc1cc([C@@H]2c3cc4c(cc3[C@H](OC3OC5COC(c6ccccc6)OC5C(O)C3O)[C@H]3COC(=O)[C@H]23)OCO4)cc(OC)c1OC` (stereo not given in full): the GI50 in the test on RXF 393 renal was 0.264 µM; in the test on HOP-62 NSCLC, 0.456 µM; with SN12C renal it was 0.368 µM; in the test on HCC-2998 colon, 0.367 µM; with CCRF-CEM leukemia it was 0.57 µM; in the test with DU-145 prostate it was 0.324 µM. The values for the GI50 in the test on SW-620 colon, in the test on KM12 colon and in the test with MALME-3M melanoma were 0.396 µM, 0.326 µM and 1.17 µM, respectively. The TGI in the test with RXF 393 renal is 0.879 µM; in the test with HOP-62 NSCLC, 5.32 µM; in the test with SN12C renal, 20.6 µM; with HCC-2998 colon, 4.7 µM; in the test on DU-145 prostate, 2.04 µM; in the test on SW-620 colon, 10.8 µM. In addition, the TGI with KM12 colon stood at 1.55 µM; in the test on MALME-3M melanoma it was 4.89 µM.
Regarding `CC(=O)NNc1nc(C)c(C(/C=C/c2ccc(/C=C/C(=N\NC(=O)c3ccncc3)c3sc(NNC(C)=O)nc3C)cc2)=N/NC(=O)c2ccncc2)s1`, the TGI with RXF 393 renal, in the test with HOP-62 NSCLC, in the test with SN12C renal, with HCC-2998 colon, with CCRF-CEM leukemia and in the test on SW-620 colon was > 100 µM in each case. Also, the TGI in the test with SF-539 CNS, with KM12 colon and in the test on MALME-3M melanoma was > 100 µM in each case.
